Key:
P2X purinoceptor 7 [1] = target: T1, P2X purinoceptor 7 (Homo sapiens, UniProt Q99572); assay: Antagonist activity at human P2X7 receptor expressed in 1321N1 cells by FLIPR assay; type: cell-based
T1 sequence (Q99572 whole entry): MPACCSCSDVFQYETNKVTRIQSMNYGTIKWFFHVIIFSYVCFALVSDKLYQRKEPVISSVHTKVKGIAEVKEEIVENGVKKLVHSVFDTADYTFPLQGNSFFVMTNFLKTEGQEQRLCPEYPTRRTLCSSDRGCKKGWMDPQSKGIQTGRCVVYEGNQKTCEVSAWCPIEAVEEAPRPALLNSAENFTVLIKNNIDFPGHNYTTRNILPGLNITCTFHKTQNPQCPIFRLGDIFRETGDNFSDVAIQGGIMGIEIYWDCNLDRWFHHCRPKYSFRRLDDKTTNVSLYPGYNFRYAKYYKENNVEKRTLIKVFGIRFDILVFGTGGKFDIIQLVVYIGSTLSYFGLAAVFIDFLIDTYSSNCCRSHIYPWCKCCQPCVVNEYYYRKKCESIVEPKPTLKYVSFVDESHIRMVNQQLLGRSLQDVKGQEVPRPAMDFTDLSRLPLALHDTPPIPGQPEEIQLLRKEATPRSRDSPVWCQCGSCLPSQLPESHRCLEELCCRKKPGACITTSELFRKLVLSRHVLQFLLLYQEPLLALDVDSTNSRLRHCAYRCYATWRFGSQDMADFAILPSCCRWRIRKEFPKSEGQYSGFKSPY

P2X purinoceptor 7 [2] = target: T1, P2X purinoceptor 7; assay: Antagonist activity at human P2X7 receptor
P2X purinoceptor 7 [3] = target: T1, P2X purinoceptor 7; assay: Inhibition of P2X7 (unknown origin) assessed as reduction in IL-1 beta release
P2X purinoceptor 7 [4] = target: T1, P2X purinoceptor 7; assay: Inhibition of P2X7 in human THP-1cells assessed as reduction in YO-PRO-1 iodide dye uptake measured after 24 hrs by fluorescence based assay; type: cell-based
P2X purinoceptor 7 [5] = target: T1, P2X purinoceptor 7; assay: Antagonist activity at human P2X7 receptor by calcium flux assay
P2X purinoceptor 7 [6] = target: T2, P2X purinoceptor 7 (Rattus norvegicus, UniProt Q64663); assay: Antagonist activity at rat P2X7 receptor by calcium flux assay
T2 sequence (Q64663 whole entry): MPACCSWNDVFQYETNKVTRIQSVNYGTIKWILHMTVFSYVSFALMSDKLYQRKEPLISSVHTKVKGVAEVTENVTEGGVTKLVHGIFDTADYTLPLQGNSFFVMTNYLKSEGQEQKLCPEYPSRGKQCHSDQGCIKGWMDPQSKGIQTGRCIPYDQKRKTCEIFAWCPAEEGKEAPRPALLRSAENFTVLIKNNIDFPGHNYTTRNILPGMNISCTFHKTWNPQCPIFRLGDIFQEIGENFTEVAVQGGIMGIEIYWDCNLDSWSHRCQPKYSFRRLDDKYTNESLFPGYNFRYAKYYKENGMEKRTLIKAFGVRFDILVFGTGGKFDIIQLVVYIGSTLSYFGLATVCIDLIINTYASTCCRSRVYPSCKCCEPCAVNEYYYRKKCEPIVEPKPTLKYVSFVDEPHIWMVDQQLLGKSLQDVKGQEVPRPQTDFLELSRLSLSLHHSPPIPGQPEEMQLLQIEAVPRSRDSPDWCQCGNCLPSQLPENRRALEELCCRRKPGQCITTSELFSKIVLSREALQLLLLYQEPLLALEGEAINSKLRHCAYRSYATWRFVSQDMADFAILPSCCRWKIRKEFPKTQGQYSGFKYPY

P2X purinoceptor 7 [7] = target: T3, P2X purinoceptor 7 (Mus musculus, UniProt Q9Z1M0); assay: Antagonist activity at mouse P2X7 receptor by calcium flux assay
T3 sequence (Q9Z1M0 whole entry): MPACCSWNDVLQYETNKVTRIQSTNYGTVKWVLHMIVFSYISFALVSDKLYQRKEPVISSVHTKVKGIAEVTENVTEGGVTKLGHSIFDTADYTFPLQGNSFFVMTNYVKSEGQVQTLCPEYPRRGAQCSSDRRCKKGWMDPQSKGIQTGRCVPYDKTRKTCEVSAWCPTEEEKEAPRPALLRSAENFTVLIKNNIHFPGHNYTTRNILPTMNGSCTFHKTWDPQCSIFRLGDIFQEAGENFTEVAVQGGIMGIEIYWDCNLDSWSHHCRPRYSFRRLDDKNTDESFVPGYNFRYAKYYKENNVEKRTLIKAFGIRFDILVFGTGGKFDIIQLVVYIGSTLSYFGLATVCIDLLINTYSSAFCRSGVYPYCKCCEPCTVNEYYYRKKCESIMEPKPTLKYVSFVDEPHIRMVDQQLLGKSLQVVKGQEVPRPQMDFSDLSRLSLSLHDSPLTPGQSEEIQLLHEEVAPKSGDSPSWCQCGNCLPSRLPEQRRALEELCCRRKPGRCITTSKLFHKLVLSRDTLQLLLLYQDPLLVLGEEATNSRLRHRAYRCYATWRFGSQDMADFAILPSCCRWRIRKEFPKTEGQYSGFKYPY

P2X purinoceptor 7 [8] = target: T1, P2X purinoceptor 7; assay: Antagonist activity at human P2X7 receptor expressed in HEK293 by fluorescence plate reader analysis; type: cell-based
P2X purinoceptor 7 [9] = target: T1, P2X purinoceptor 7; assay: Inhibition of human P2X7 receptor transfected in HEK293 cells by calcium influx assay; type: cell-based
[10] = target: T4, P2X purinoceptor 7 (Mus musculus) (UniProt Q9Z1M0); assay: Antagonist activity at P2X7 receptor in mouse Peritoneal macrophage cells assessed as ATP induced dye uptake at 10 uM relative to control; type: cell-based
T4 sequence (whole entry): T3 sequence (Q9Z1M0 whole entry)

## Cc1ccc(N2CCCC2=O)cc1Nc1nc(=O)cnn1Cc1cc(F)c(F)c(F)c1
P2X purinoceptor 7 [1]
  IC50: 5.7 nM

## COc1ccc(Nc2nc(=O)cc3n2C(c2ccccc2)CN3C)c(C)c1 (stereo unspecified)
P2X purinoceptor 7 [2]
  IC50: < 10 nM

## C[C@@H](CO)n1ccc2c(NC(=O)CC34CC5CC(CC(C5)C3)C4)cccc2c1=O
P2X purinoceptor 7 [3]
  IC50: 0.15 nM
P2X purinoceptor 7 [4]
  IC50: 107 nM

## Cc1ccc(CO)cc1Nc1nc(=O)ccn1Cc1cc(F)c(F)c(F)c1
P2X purinoceptor 7 [1]
  IC50: 4 nM

## O=c1onc(Cc2c(F)cccc2Cl)n1CC1CCC(C(F)(F)F)CC1 (stereo unspecified)
P2X purinoceptor 7 [5]
  IC50: < 200 nM
P2X purinoceptor 7 [6]
  IC50: < 200 nM
P2X purinoceptor 7 [7]
  IC50: < 200 nM

## Cn1nccc1Nc1nc(=O)c(F)cn1Cc1cc(F)c(F)c(F)c1
P2X purinoceptor 7 [1]
  IC50: > 100 nM

## C[C@@H]1CCC[C@](O)(CNC(=O)c2cn(CC3CCCO3)c3cccc(Cl)c23)C1 (stereo partly specified)
P2X purinoceptor 7 [8]
  IC50: 10 nM

## COCCn1cc(C(=O)NCc2ccc(C(F)(F)F)cc2)c2c(Cl)cccc21
P2X purinoceptor 7 [8]
  IC50: > 1000 nM

## COc1cnc(C)c(Nc2nc(=O)c3c(n2Cc2cc(F)c(F)c(F)c2)CCC3)c1
P2X purinoceptor 7 [2]
  IC50: 100 nM

## Cc1ccc(Cn2c(Nc3cc4sc(C)nc4cc3C)nc(=O)c3[nH]cnc32)cc1
P2X purinoceptor 7 [2]
  IC50: 500 nM

## COc1ccc(C)c(Nc2nc(=O)cnn2Cc2cncc(F)c2)c1
P2X purinoceptor 7 [1]
  IC50: 100 nM

## Cc1ccc(-c2ncco2)cc1Nc1nc(=O)cnn1Cc1cc(F)c(F)c(F)c1
P2X purinoceptor 7 [1]
  IC50: 2.4 nM

## COc1ccc(Nc2nc(=O)c3nn(C)cc3n2Cc2cc(F)c(F)c(F)c2)c(C)c1
P2X purinoceptor 7 [2]
  IC50: < 10 nM

## O=c1onc(CN2CCOc3ccccc32)n1CC1CCC(F)(F)CC1
P2X purinoceptor 7 [5]
  IC50: < 200 nM
P2X purinoceptor 7 [6]
  IC50: < 200 nM
P2X purinoceptor 7 [7]
  IC50: < 200 nM

## O=c1onc(Cc2c(F)cccc2Cl)n1CC1CC2CCC1C2 (stereo unspecified)
P2X purinoceptor 7 [5]
  IC50: < 200 nM
P2X purinoceptor 7 [6]
  IC50: < 200 nM
P2X purinoceptor 7 [7]
  IC50: 200 nM

## O=c1snc(Cc2c(F)cccc2Cl)n1CC1CCC(F)(F)CC1
P2X purinoceptor 7 [5]
  IC50: < 200 nM
P2X purinoceptor 7 [6]
  IC50: < 200 nM
P2X purinoceptor 7 [7]
  IC50: < 200 nM

## Cc1c(Cl)cccc1Nc1nc(=O)cc2n1C(c1ccccc1)CO2 (stereo unspecified)
P2X purinoceptor 7 [2]
  IC50: < 10 nM

## Cc1nc2cc(C)c(Nc3nc(=O)cc4n3C(c3ccc(F)cc3)CC4)cc2s1 (stereo unspecified)
P2X purinoceptor 7 [2]
  IC50: < 10 nM

## CCOC(C)CNC(=O)c1cn(C2COC2)c2cccc(Cl)c12 (stereo unspecified)
P2X purinoceptor 7 [8]
  IC50: > 1000 nM

## CS(=O)(=O)C1CC[C@@](F)(C(=O)NCc2ccc(Cl)cc2Cl)c2cccnc21 (stereo partly specified)
P2X purinoceptor 7 [9]
  IC50: < 50 nM

## CCc1cccc(Nc2nc(=O)c3[nH]cnc3n2Cc2ccc(F)cc2)c1CC
P2X purinoceptor 7 [2]
  IC50: < 10 nM

## O=C(NCc1cccc(C(F)(F)F)c1Cl)C1(F)CCC(O)c2ncccc21 (stereo unspecified)
P2X purinoceptor 7 [9]
  IC50: < 50 nM

## CC1=C(C(c2ccc(F)cc2)n2cc(COCc3ccco3)nn2)C(=O)c2ccccc2C1=O (stereo unspecified)
[10]
  inhibition: < 60%

## O=C1CO[C@]2(CC[C@@](F)(C(=O)NCc3ccc(Cl)cc3Cl)c3cccnc32)CN1
P2X purinoceptor 7 [9]
  IC50: < 50 nM

## COc1ccc(Nc2nc(=O)c3[nH]cnc3n2Cc2ccc(F)c(F)c2)c(C)c1
P2X purinoceptor 7 [2]
  IC50: < 10 nM

## COc1ccc(Cc2noc(=O)n2CC2CCC(F)(F)CC2)cc1
P2X purinoceptor 7 [5]
  IC50: 1000 nM
P2X purinoceptor 7 [6]
  IC50: 1000 nM
P2X purinoceptor 7 [7]
  IC50: 1000 nM

## O=c1onc(Cc2ccc(Cl)cc2Cl)n1CC1CCC(F)(F)CC1
P2X purinoceptor 7 [5]
  IC50: < 200 nM
P2X purinoceptor 7 [6]
  IC50: < 200 nM
P2X purinoceptor 7 [7]
  IC50: 200 nM

## Cc1cc(Nc2nc(=O)c3[nH]cnc3n2Cc2ccccc2)c(C)cc1Cl
P2X purinoceptor 7 [2]
  IC50: < 10 nM

## COCCn1cc(C(=O)NC[C@@]2(O)CCCC(F)(F)C2)c2c(Cl)cccc21
P2X purinoceptor 7 [8]
  IC50: < 10 nM

## CC1=C(C(C)n2cc(COCc3ccco3)nn2)C(=O)c2ccccc2C1=O (stereo unspecified)
[10]
  inhibition: < 60%

## O=c1onc(Cc2c(F)cccc2Cl)n1CC1CCCCCC1
P2X purinoceptor 7 [5]
  IC50: < 200 nM
P2X purinoceptor 7 [6]
  IC50: < 200 nM
P2X purinoceptor 7 [7]
  IC50: 200 nM
